According to patent US11490856B2, “Method and a system for analyzing neuropharmacology of a drug” (City University of Hong Kong, priority 2018, dated 2022):
Like-named read-outs stand apart in the source and are kept apart here.

Legend:
[1] = Solubility in water noted when preparing behavioral test concentrations; assay type: physicochemical
Procedure: (§1) The experimental protocol uses a 96-well plate, with one zebrafish larva (5 days post-fertilization) in 90 μL of fish water in each well. 10 μL of a 10× solution of compound in 10% DMSO was added to each well to achieve the final concentration shown in the data, and for a final concentration of 1% DMSO. […] The larvae were pre-treated with compound for four hours, followed by a two minute dark stimulation to ensure fish were not sedated, followed by a 15 minutes period of observation for deviation from the anticipated normal movement/swimming behavior. […] After a 15 minute observation period, the larvae were treated with PTZ to a final concentration of 5 mM, and the number of seizures per larva at each concentration quantified for 15 minutes following PTZ treatment. The DanioVision platform (Noldus) was used to perform the animal behavioral recoding and analysis.

[2] = test system: kainic-acid induced seizure model; settings: mice, shown previously; cited from earlier work
[3] = test system: pentylenetetrazole (PTZ) induced zebrafish seizure model; settings: for seizure count over 15 minutes after PTZ: 5 mM PTZ after 4 hour pre-incubation with compound, n=12, vs DMSO control; for concentration at which seizures were reduced: 5 mM PTZ after 4 hour pre-incubation
Procedure: In these experiments, with reference to FIG. 38, following a four-hour drug incubation period, zebrafish larvae were pre-monitored for normal movements/swimming behavior for 17 minutes. […] At the 17-minute mark, the larvae were treated with PTZ to a final concentration of 5 mM, and the number of seizures per larva and the average number of seizures at each concentration were quantified for 15 minutes following PTZ exposure.
as §1

animal models = settings: previously reported; cited from earlier work
PTZ-larvae = assay: Calcium fluctuation traces and T-score BAM of PTZ-treated larval brains; assay type: in vivo, zebrafish; settings: 5 mM PTZ; 4 hour treatment at 10 μM
From the text: With reference to FIGS. 39C to 39E, Such pharmacological effects could also be observed in the diametrically opposed BAMS from zebrafish treated in the same manner. NNC-711 is thought to principally act through the inhibition of GABA uptake from the synaptic cleft and glia via inhibition of SLC6A1 (solute carrier family 6 member 1; (GAT1)) leading to increased GABA-ergic neurotransmission.

[4] = test system: rat models of induced epilepsy; settings: literature; cited from earlier work
zebrafish brain = assay: HT-BAMing whole-brain activity mapping (T-score BAM) by calcium imaging of awake larvae; assay type: in vivo; settings: for change in brain neural activity (T-score BAM pattern): 10 μM dose, 15-minute perfusion, five larvae per compound
Procedure: The transgenic zebrafish line elav13:GCaMP5G may be maintained in aquaria under standard laboratory conditions (at 28° C. under a cycle of 14 h light, 10 h dark). Larvae of 6-8 dpf were used in the HT-BAMing experiments.
For example, the imaging process may be performed on a fully automated inverted fluorescent microscope (Olympus IX81) equipped with a cooled sCMOS camera (Neo, ANDOR) with a 10× (NA, 0.4) objective. Micro-manager 1.4 may be installed to control the microscope. For high-resolution, confocal imaging and Leica SP8 microscope with a resonant scanner may be used.
Furthermore, a drug perfusion time may be set in which the two syringes may contain different fluid or solutions such that the changes induced by the drug may be recorded. With reference to FIGS. 8 and 9, to generate the functional BAM of a larva in response to a 15-minute period of chemical perfusion, or “treatment”, each larva was imaged over a 10-minute period before and after treatment.
In the experiments performed by the inventors, all drugs or compounds were dissolved in DMSO as a vehicle as ˜10 mM stock solutions. Treatment of the larvae was performed simply by switching the perfusion solution after immobilizing larvae in the microfluidic chip as shown in FIG. 8. Final concentrations of compounds tested in the primary screen were […].
In one example embodiment, the transformation module 106 is arrange to construct the brain activity maps 110 based on counting neural spikes representing changes of brain activity as detected on the images obtained. With reference to FIGS. 1 and 9, readings from multiple focal planes along the Z-axis (ventral direction) were acquired, and accumulated spike counts were derived from the calcium fluctuations of each Z-plane with a lateral resolution of 15.21 μm^2. The difference in spike-counts between the post- and pre-treatment periods was calculated and projected (by summing up along the Z-axis) to a two-dimensional surface to construct a BAM that reflects changes in brain activity and physiology of an individual larva in response to treatment.
With reference also to FIG. 10, a heat map may be used to intuitively display the activation level of the brain. To map brain activity, every collected frame from calcium imaging may be first meshed into small ROIs, each with a size of 15.21 μm^2. The time series of fluorescence signal in each ROI may then be filtered by a high pass filter to remove the interference from illumination fluctuations. The resulting trace may be used to calculate and visualize the spiking activities. For spike counting, a threshold may be applied to detect spikes from neural activity.
In the experiment, for each compound, the spike count data from five independent zebrafish larvae over a 10-minute period before and a 15-minute period after compound treatment. Before comparison across different samples, all the images were first resized and aligned to a uniform zebrafish brain template with the following process: for each raw image, the dark background was first removed to extract the fluorescent brain region, which was then mapped to the standard template via specific transformative adjustments (e.g. rotation, translation) using the brain center-line as a registration landmark and such that the symmetry with respect to the center-line was maximized in the resulted image. Lastly, the fish eye region was further removed by taking the regions within the template for downstream analysis.
A brain activity map (BAM) A=[aij] was then derived by taking the change (increase or decrease) of spike counts in each ROI before (t0) and after chemical treatment (t1), and summed across multiple layers along the Z-axis:
For each compound, BAMs from five individual larvae were acquired following treatment with a 10 μM dose.

dopamine levels = settings: mice, literature; cited from earlier work

O=c1cc(-c2ccccc2)oc2c(O)c(O)ccc12 [7,8-dihydroxyflavone]
solubility [1]: highly insoluble in water

COc1ccc(CNC(=O)Nc2ncc([N+](=O)[O-])s2)cc1 [AR-A014418]
solubility ([1]; water / fish water, 1% DMSO): highly insoluble in water

CC1=NN=C(c2ccc(N)cc2)c2cc3c(cc2C1)OCO3 [GYKI-52466]
anticonvulsant activity in kainic-acid induced seizure model [2]: anticonvulsant activity | seizure count over 15 minutes after PTZ [3]: confirmed | seizure count over 15 minutes after PTZ ([3]; listed as GYKI 54266): hit compounds

Oc1noc2c1CCNC2 [Gaboxadol]
anti-epileptic activity in animal models (animal models): anti-epileptic activity

O=C(O)C1=CCCN(CCON=C(c2ccccc2)c2ccccc2)C1 [NNC-711, NNC 711]
seizure activity in larval brain (calcium fluctuation, T-score BAM) (PTZ-larvae): reduction of seizure activity | anti-epileptic activity in animal models (animal models): anti-epileptic activity | concentration at which seizures were reduced [3]: 25 µM | anticonvulsant efficacy in rat models of induced epilepsy [4]: anticonvulsant efficacy

OC(CNc1ccccc1)Cn1c2ccc(Br)cc2c2cc(Br)ccc21 (centres unmarked) [P7C3]
solubility ([1]; water / fish water, 1% DMSO): highly insoluble in water

Cc1ncc(CSSCc2cnc(C)c(O)c2CO)c(CO)c1O [Pyrithioxine]
change in brain neural activity (T-score BAM pattern) (zebrafish brain): increased activity brain-wide | change of action potential firing rate in selected neuronal cells from a zebrafish brain (zebrafish brain; FIG. 9, after drug treatment): excitation

Cl.O=C(O)C1CCCN(CCC=C(c2ccccc2)c2ccccc2)C1 (centres unmarked) [SKF89976A, SKF 89976A]
anti-epileptic activity in animal models (animal models): anti-epileptic activity

OCCCCC#Cc1cncc(OC[C@@H]2CCN2)c1 [Sazetidine]
seizure count over 15 minutes after PTZ [3]: hit compounds

CNC(=O)[C@@H](Cc1ccccc1)N(C)C(=O)[C@@H](Cc1ccc2ccccc2c1)N(C)C(=O)/C=C/CC(C)(C)N [Tabimorelin]
seizure count over 15 minutes after PTZ [3]: hit compounds

CN1CCc2c(c3ccccc3n2Cc2ccc(C(=O)NO)cc2)C1 [Tubastatin A]
concentration at which seizures were reduced [3]: 500 µM | seizure count over 15 minutes after PTZ [3]: hit compounds | seizure count over 15 minutes after PTZ ([3]; listed as Tubastatin-A): reduced seizure count

COc1ccc(/C=C/c2cc(OC)cc(=O)o2)cc1 [Yangonin]
solubility [1]: highly insoluble in water | seizure count over 15 minutes after PTZ [3]: hit compounds

COc1ccc2cc3[n+](cc2c1OC)CCc1cc2c(cc1-3)OCO2 [berberine, Berberine]
effect on dopamine levels (dopamine levels): increase dopamine levels

NC(=O)N1c2ccccc2C=Cc2ccccc21 [carbamazepine, Carbamazepine]
change in brain neural activity (T-score BAM pattern) (zebrafish brain): inhibition of activity across almost the entire brain

CCC1(C)CC(=O)NC1=O (centres unmarked) [ethosuximide, Ethosuximide]
change in brain neural activity (T-score BAM pattern) (zebrafish brain): inhibition of activity across almost the entire brain

Nc1nnc(-c2cccc(Cl)c2Cl)c(N)n1 [lamotrigine, Lamotrigine]
change in brain neural activity (T-score BAM pattern) (zebrafish brain): inhibition of activity across almost the entire brain

CC[C@@H](C(N)=O)N1CCCC1=O [levetiracetam, Levetiracetam]
change in brain neural activity (T-score BAM pattern) (zebrafish brain): inhibition of activity across almost the entire brain

NC(=O)N1c2ccccc2CC(=O)c2ccccc21 [oxcarbazepine]
change in brain neural activity (T-score BAM pattern) (zebrafish brain): inhibition of activity across almost the entire brain

N#Cc1ccccc1-c1cc(-c2ccccn2)cn(-c2ccccc2)c1=O [perampanel, Perampanel]
change in brain neural activity (T-score BAM pattern) (zebrafish brain): inhibition of activity across almost the entire brain

NC(=O)CCC/N=C(\c1ccc(Cl)cc1)c1cc(F)ccc1O [progabide, Progabide]
change in brain neural activity (T-score BAM pattern) (zebrafish brain): inhibition of activity across almost the entire brain

COc1cccc([C@H](O)C2CCN(CCc3ccc(F)cc3)CC2)c1OC [volinanserin]
solubility [1]: highly insoluble in water | seizure count over 15 minutes after PTZ [3]: reduced seizures | seizure count over 15 minutes after PTZ ([3]; listed as Volinanerin): hit compounds
